{"source": "patent US6809091B1", "about": "“Substances capable of inducing apoptosis” (Takara Bio Inc., priority 1998, dated 2004)", "format_in_all_cases": "cell-based, human", "key": {"HL-60 cells": {"system": "HL-60 cells", "experiment": "analysis of fragmentation of DNA", "description": "(2) HL-60 cells which were incubated on an RPMI 1640 medium containing 10% of fetal bovine serum processed at 56° C. for 30 minutes were suspended in an RPMI 1640 medium to make 2.5×10^5 cells/5 ml.\nTo 5 ml the suspension were added 10 μl of 12.5 mM, 25 mM, 50 mM or 100 mM of a 70% ethanolic solution of 4,5-dihydroxy-2-pentenal, 0.05 mM, 0.5 mM, 5 mM or 50 mM of a 70% ethanolic solution of 4-hydroxy-2-cyclopenten-1-one, 5 mM, 10 mM or 20 mM of a 70% ethanolic solution of 4-(9-adeninyl)-2-cyclopenten-1-one prepared in Example 4-(4), 2.5 mM, 5 mM, 15 mM or 25 mM of a 70% ethanolic solution of 4-(9-guaninyl)-2-cyclopenten-1-one prepared in Example 4-(5) 75 mM, 150 mM or 300 mM of a 70% ethanolic solution of 1,5-epoxy-1-hydroxy-3-penten-2-one prepared in Example 5-(2) or 5 mM, 25 mM or 50 mM of a 70% ethanolic solution of 2-(trans-3,4-dihydroxy-1-butenyl)-4-(trans-2-formylvinyl)-1,3-dioxolane prepared in Example 6-(2) followed by incubating at 37° C. in the presence of 5% of carbon dioxide gas for 24 hours and 48 hours and the resulting cells were subjected to a measurement of apoptosis cells using FACScan by a method mentioned in pages 129-130 of “Experimental Protocol Series—Apoptosis Experiment Protocol” which was an extra issue of “Saibo Kogaku (Cell Technology)” (published by Shujunsha in 1994) and also to a measurement of analysis of fragmentation of DNA by a method mentioned in page 61-63 of “Biomanual UP Series—New Experimental Methods for Apoptosis” (published by Yodosha in 1995)."}, "[1]": {"system": "heat shock protein of 70 kDa in HL-60", "experiment": "induction of heat shock protein of 70 kDa, SDS-PAGE and blotting", "design": "key: “−” means no induction; “±” means a little induction; “+” shows the intensity of induction and the more the “+”, the more the induction; ++: “+” shows the intensity of induction and the more the “+”, the more the induction; +++: “+” shows the intensity of induction and the more the “+”, the more the induction", "conditions": "six hours", "description": "Each 5 ml of an RPMI 1640 medium containing 10% of FBS containing 2×10^5 cells/ml of HL-60 (ATCC CCL-240) were placed in each well of a six-well plate, incubated at 37° C. for 24 hours in the presence of 5% CO2, then 4,5-dihydroxy-2-pentenal was added to make the final concentration 0, 12.5, 25, 50 or 100 μM or 4-hydroxy-2-cyclopenten-1-one was added to make the final concentration 0, 2.5, 5, 10, 20, 40 or 80 μM and the mixture was incubated for six hours more.\nAfter completion of the incubation, cell numbers were counted and then the cells were recovered by centrifugation and washed with PBS to prepare the cells treated with each of the samples. In addition, cells which were heated at 45° C. for five minutes followed by subjecting to the same incubation were prepared as well.\nThe cells treated as such were then subjected to an SDS-PAGE according to a method mentioned in “Molecular Cloning” (Cold Spring Harbor Laboratory Press, 1989). Thus, the cells were suspended in an SDS-PAGE sample buffer to make the concentration 2.5×10^6 cells/ml, the resulting cell suspension was treated at 100° C. for ten minutes, each 5 μl thereof were applied to two sheets of SDS-PAGE gel (a 5% stacking gel and a 10% separation gel) and an electrophoresis was carried out. One of the gels was stained with Coomassie while another was subjected to a blotting to polyvinylidene difluoride transfer membrane (Immobilon™ manufactured by MILLIPORE; catalog no. IPVH000-10). This membrane was subjected to a blocking overnight at 4° C. using Block Ace (manufactured by Dainippon Pharmaceutical; catalog no. UK-B25).\nThe membrane which was subjected to a blocking as such was made to react with monoclonal antibody HSP 72/73 (Ab-1) (manufactured by Oncogene Research Products; catalog no. HSP01) which specifically reacted with heat-induced heat shock protein of 70 kDa, washed with TBS containing 0.05% Tween 20 and further washed with TBS. After that, it was made to react with peroxidase-compounded secondary antibody HRP-Rabbit Anti Mouse IgG (H+L) (manufactured by ZYMED Laboratories; catalog no. 61-6520) and washed as same as in the previous operation. The membrane which was made to react with the primary antibody and the secondary antibody as such was made to react with RENAISSANCE™ (a chemiluminol reagent manufactured by Dupont NEN, catalog no. NEL-100) and then exposed to X-ray film to confirm the induction of the heat shock protein of 70 kDa."}, "[2]": {"system": "hepatoblastoma HepG2 cells", "experiment": "cell growth of HepG2 cells, Premix WST-1", "description": "HepG2 cells (ACTT HB-8065) which were the cell strains established from the patients suffering from primary hepatoblastoma were suspended in a DMEM medium (manufactured by Gibco) containing 10% of FBS (manufactured by BioWhittaker) to an extent of 3.8×10^3 cells/ml, each 200 μl of the suspension were placed in each well of a 96-well microtiter plate and incubated at 37° C. in the presence of 5% carbon dioxide gas until the cells saturated in an incubator, the medium was exchanged, then 4-hydroxy-2-cyclopenten-1-one or […], the mixture was incubated for 24, 48 or 72 hours, 10 μl of Premix WST-1 (MK 400; manufactured by Takara Shuzo) were added thereto, the mixture was made to react at 37° C. for three hours and the value (A450-650) obtained by subtracting the absorbance at 650 nm (A650) from that at 450 nm (A450) was defined as a degree of cell growth."}}, "data": [{"molecule": "O=CC=CC(O)CO", "note": "(single isomer, unassigned) [4,5-dihydroxy-2-pentenal, trans-4,5-dihydroxy-2-pentenal]", "values": [{"measurement": "fragmentation of DNA", "setting": "HL-60 cells; HL-60, 50 μM final concentration", "value": "confirmed"}, {"measurement": "fragmentation of DNA", "setting": "HL-60 cells; HL-60, 100 μM final concentration", "value": "confirmed"}, {"measurement": "fragmentation of DNA", "setting": "HL-60 cells; HL-60, 200 μM final concentration", "value": "confirmed"}, {"measurement": "intensity of induction of heat shock protein of 70 kDa", "setting": "[1]; HL-60, 25 μM", "value": "±"}, {"measurement": "intensity of induction of heat shock protein of 70 kDa", "setting": "[1]; HL-60, 50 μM", "value": "+++"}, {"measurement": "intensity of induction of heat shock protein of 70 kDa", "setting": "[1]; HL-60, 100 μM", "value": "−"}, {"measurement": "Degree of Cell Growth", "setting": "[2]; 25 μM, 24 hours", "value": 3.39, "unit": "A450-650"}, {"measurement": "Degree of Cell Growth", "setting": "[2]; 25 μM, 48 hours", "value": 2.69, "unit": "A450-650"}, {"measurement": "Degree of Cell Growth", "setting": "[2]; 25 μM, 72 hours", "value": 1.70, "unit": "A450-650"}, {"measurement": "Degree of Cell Growth", "setting": "[2]; 50 μM, 24 hours", "value": 1.97, "unit": "A450-650"}, {"measurement": "Degree of Cell Growth", "setting": "[2]; 50 μM, 48 hours", "value": 2.96, "unit": "A450-650"}, {"measurement": "Degree of Cell Growth", "setting": "[2]; 50 μM, 72 hours", "value": 1.70, "unit": "A450-650"}, {"measurement": "Degree of Cell Growth", "setting": "[2]; 100 μM, 24 hours", "value": 1.81, "unit": "A450-650"}, {"measurement": "Degree of Cell Growth", "setting": "[2]; 100 μM, 48 hours", "value": 2.70, "unit": "A450-650"}, {"measurement": "Degree of Cell Growth", "setting": "[2]; 100 μM, 72 hours", "value": 0.89, "unit": "A450-650"}, {"measurement": "Degree of Cell Growth", "setting": "[2]; 150 μM, 24 hours", "value": 1.40, "unit": "A450-650"}, {"measurement": "Degree of Cell Growth", "setting": "[2]; 150 μM, 48 hours", "value": 0.79, "unit": "A450-650"}, {"measurement": "Degree of Cell Growth", "setting": "[2]; 150 μM, 72 hours", "value": 0.35, "unit": "A450-650"}]}, {"molecule": "O=C1C=CC(O)C1", "note": "(centres unmarked) [4-hydroxy-2-cyclopenten-1-one]", "values": [{"measurement": "fragmentation of DNA", "setting": "HL-60 cells; HL-60, 10 μM final concentration", "value": "confirmed"}, {"measurement": "intensity of induction of heat shock protein of 70 kDa", "setting": "[1]; HL-60, 5 μM", "value": "±"}, {"measurement": "intensity of induction of heat shock protein of 70 kDa", "setting": "[1]; HL-60, 20 μM", "value": "+++"}, {"measurement": "intensity of induction of heat shock protein of 70 kDa", "setting": "[1]; HL-60, 40 μM", "value": "++"}, {"measurement": "intensity of induction of heat shock protein of 70 kDa", "setting": "[1]; HL-60, 80 μM", "value": "±"}, {"measurement": "Degree of Cell Growth", "setting": "[2]; 25 μM, 24 hours", "value": 1.30, "unit": "A450-650"}, {"measurement": "Degree of Cell Growth", "setting": "[2]; 25 μM, 48 hours", "value": 0.70, "unit": "A450-650"}, {"measurement": "Degree of Cell Growth", "setting": "[2]; 25 μM, 72 hours", "value": 0.49, "unit": "A450-650"}, {"measurement": "Degree of Cell Growth", "setting": "[2]; 50 μM, 24 hours", "value": 1.38, "unit": "A450-650"}, {"measurement": "Degree of Cell Growth", "setting": "[2]; 50 μM, 48 hours", "value": 0.81, "unit": "A450-650"}, {"measurement": "Degree of Cell Growth", "setting": "[2]; 50 μM, 72 hours", "value": 0.47, "unit": "A450-650"}, {"measurement": "Degree of Cell Growth", "setting": "[2]; 100 μM, 24 hours", "value": 1.31, "unit": "A450-650"}, {"measurement": "Degree of Cell Growth", "setting": "[2]; 100 μM, 48 hours", "value": 0.56, "unit": "A450-650"}, {"measurement": "Degree of Cell Growth", "setting": "[2]; 100 μM, 72 hours", "value": 0.35, "unit": "A450-650"}, {"measurement": "Degree of Cell Growth", "setting": "[2]; 150 μM, 24 hours", "value": 1.23, "unit": "A450-650"}, {"measurement": "Degree of Cell Growth", "setting": "[2]; 150 μM, 48 hours", "value": 0.43, "unit": "A450-650"}, {"measurement": "Degree of Cell Growth", "setting": "[2]; 150 μM, 72 hours", "value": 0.30, "unit": "A450-650"}]}]}
